Source: ChEMBL document CHEMBL1201862, “PubChem BioAssay data set” (2004)
Activity calls are given as the source filed them.

Columns and labels:
[1] = NIH-3T3 fibroblast cytotoxicity, dose response, cytotoxicity control, cell-based, fluorescence, Alamar Blue, secondary assay (AID 2327); assay type: functional;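 note: NIH-3T3 mouse fibroblasts cultured with fluconazole at 8 µg/mL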
[2] = fluconazole-exposed Candida albicans growth modulators – fluorescence, retest, confirmation (AID 2467); assay type: functional, cell-based
H4 = experiment: Luminescence Cell-Based Dose Response HTS to Identify Activators of 5'UTR Stem-Loop Driven Prion Protein mRNA Translation in H4 Neuroglioblastoma Cells. [Related pubchem assays: 1829 (Project Summary), 1814 (Primary HTS)]; assay type: functional; details: Homo sapiens
[3] = Trypanosoma cruzi growth suppression in host cells – NIH3T3 host cells, beta-gal luminescence, confirmation (AID 2044); assay type: functional, cell-based;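 note: intracellular parasites grown in NIH/3T3 mouse fibroblasts as host cells; luminescent beta-galactosidase reporter signal from transgenic T. cruzi replicating inside host cells; inhibitors lower the luminescence signal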
[4] = viability of uninfected HEp-2 cells – cell-based, HTS, cytotoxicity control for RSV inhibitor project, dose response (AID 2410); assay type: functional; details: human respiratory syncytial virus
[5] = microbe, parasite or virus in culture; assay type: functional; details: Mycobacterium tuberculosis
[6] = molecular target: FAD-linked sulfhydryl oxidase ALR (Homo sapiens, UniProt P55789); experiment: ALR-catalysed DTT oxidation blockers – biochemical, H2O2 detection, luminescence, cherry-pick, dose response (AID 493248)
Sequence of FAD-linked sulfhydryl oxidase ALR (P55789 whole entry): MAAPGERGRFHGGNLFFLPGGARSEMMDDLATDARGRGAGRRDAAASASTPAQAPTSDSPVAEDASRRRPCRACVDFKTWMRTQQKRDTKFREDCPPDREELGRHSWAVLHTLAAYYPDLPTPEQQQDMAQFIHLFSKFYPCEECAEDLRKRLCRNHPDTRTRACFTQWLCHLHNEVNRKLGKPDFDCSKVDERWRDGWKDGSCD

Cytochrome P450 1A2 = molecular target: T1, Cytochrome P450 1A2 (Homo sapiens, UniProt P05177);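 note: PubChem cytochrome P450 panel assay, CYP1A2 panel member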
T1 sequence (P05177 whole entry): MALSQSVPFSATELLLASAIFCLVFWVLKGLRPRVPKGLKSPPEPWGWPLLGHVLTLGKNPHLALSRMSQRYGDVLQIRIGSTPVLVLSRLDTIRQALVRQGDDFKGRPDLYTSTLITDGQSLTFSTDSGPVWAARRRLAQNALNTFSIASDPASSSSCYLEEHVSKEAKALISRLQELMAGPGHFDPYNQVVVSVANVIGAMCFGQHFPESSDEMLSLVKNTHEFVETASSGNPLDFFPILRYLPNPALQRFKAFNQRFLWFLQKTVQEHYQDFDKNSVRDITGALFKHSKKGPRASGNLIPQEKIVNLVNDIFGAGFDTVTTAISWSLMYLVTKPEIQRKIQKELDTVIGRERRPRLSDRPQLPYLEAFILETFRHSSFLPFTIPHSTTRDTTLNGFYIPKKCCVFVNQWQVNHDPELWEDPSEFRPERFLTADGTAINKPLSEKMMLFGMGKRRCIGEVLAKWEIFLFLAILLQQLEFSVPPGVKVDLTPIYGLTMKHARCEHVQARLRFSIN

Cytochrome P450 2C9 = Cytochrome P450 2C9 (Homo sapiens, UniProt P11712)
Sequence of Cytochrome P450 2C9 (P11712 whole entry): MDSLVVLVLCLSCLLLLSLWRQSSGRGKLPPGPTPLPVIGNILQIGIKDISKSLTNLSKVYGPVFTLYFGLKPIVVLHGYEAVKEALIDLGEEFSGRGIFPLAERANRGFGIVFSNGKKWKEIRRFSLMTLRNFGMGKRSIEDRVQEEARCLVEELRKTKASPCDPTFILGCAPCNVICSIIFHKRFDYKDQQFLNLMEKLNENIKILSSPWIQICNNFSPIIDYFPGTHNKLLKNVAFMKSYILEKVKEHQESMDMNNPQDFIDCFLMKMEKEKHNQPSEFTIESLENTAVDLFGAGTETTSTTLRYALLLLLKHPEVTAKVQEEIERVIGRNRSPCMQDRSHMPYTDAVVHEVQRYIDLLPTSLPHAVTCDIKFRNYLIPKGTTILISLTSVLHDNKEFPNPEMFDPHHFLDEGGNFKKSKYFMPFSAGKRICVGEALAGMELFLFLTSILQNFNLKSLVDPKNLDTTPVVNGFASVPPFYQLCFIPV

Cytochrome P450 2C19 = Cytochrome P450 2C19 (Homo sapiens, UniProt P33261); experiment: Cytochrome panel assay with activity outcomes. Panel member name: p450-cyp2c19 Compounds with AC50 equal or less than 10 uM are considered active; assay type: functional; details: read-out: AC50
Sequence of Cytochrome P450 2C19 (P33261 whole entry): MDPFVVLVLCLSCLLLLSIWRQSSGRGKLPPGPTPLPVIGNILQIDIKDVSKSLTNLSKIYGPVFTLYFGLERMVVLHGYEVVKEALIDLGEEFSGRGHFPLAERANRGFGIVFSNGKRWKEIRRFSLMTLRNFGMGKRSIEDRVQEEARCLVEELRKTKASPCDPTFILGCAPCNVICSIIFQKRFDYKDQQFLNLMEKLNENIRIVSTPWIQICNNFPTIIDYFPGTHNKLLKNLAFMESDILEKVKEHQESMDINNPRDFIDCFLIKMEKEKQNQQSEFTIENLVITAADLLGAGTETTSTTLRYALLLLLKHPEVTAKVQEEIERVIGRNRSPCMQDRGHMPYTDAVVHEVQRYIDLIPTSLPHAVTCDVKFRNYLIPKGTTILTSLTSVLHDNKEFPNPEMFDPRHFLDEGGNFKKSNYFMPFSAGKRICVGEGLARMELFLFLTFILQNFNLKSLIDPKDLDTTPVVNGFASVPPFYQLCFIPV

[7] = luciferase reporter signal suppression in cells – H4 neuroglioma cells, luminescence, dose response (AID 1990); assay type: functional, cell-based
[8] = tested on: Streptococcus sp. 'group A'; experiment: Streptococcus pyogenes SK(-)GAS viability under kanamycin – luminescence, BacTiterGlo, confirmation, counter-screen for streptokinase expression inhibitor project, dose response (AID 1900); assay type: functional, organism-based
[9] = Luminescence Cell-Based Dose Response HTS to Identify Inhibitors of 5'UTR Stem-Loop Driven Prion Protein mRNA Translation in H4 Neuroglioblastoma Cells. [Related pubchem assays: 1827 (Project Summary), 1813 (Primary HTS)]; assay type: functional
[10] = alpha-synuclein stem-loop luciferase translation blockers – H4 neuroglioma cells, luminescence, confirmation (AID 1988); assay type: functional, cell-based
[11] = NIH3T3 cell viability loss – ATP luminescence, mouse fibroblasts, counter-screen, dose response (AID 2010); assay type: functional, cell-based;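 note: cells exposed to compound for about 90 hours before reading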
Streptococcus = experiment: GAS UMAA2166 growth inhibition – luminescence, BacTiterGlo, counter-screen for streptokinase expression inhibitor project, dose response (AID 1915); assay type: functional, organism-based;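 note: potency for reduction of bacterial viability or growth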
INS1 = experiment: INS-1E survival protection against cytokine death – cell-based, luminescence, retest, dose response (AID 449756); assay type: functional; details: Rattus norvegicus;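 note: cell death triggered by IL-1 beta plus TNF-alpha plus IFN-gamma mixture; protective hits raise ATP signal compared with cytokine alone wells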
[12] = molecular target: T2, Heat shock factor protein 1 (Mus musculus, UniProt P38532); experiment: decrease of HSF1-responsive luciferase luminescence – cell-based, NIH3T3, dose retest, confirmation (AID 2382); assay type: functional;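 note: NIH3T3 fibroblasts with HSF1-driven luciferase reporter stressed by proteasome inhibitor MG132; luminescence from HSF1-driven luciferase expression after 8 hours of MG132 stress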
T2 sequence (P38532 whole entry): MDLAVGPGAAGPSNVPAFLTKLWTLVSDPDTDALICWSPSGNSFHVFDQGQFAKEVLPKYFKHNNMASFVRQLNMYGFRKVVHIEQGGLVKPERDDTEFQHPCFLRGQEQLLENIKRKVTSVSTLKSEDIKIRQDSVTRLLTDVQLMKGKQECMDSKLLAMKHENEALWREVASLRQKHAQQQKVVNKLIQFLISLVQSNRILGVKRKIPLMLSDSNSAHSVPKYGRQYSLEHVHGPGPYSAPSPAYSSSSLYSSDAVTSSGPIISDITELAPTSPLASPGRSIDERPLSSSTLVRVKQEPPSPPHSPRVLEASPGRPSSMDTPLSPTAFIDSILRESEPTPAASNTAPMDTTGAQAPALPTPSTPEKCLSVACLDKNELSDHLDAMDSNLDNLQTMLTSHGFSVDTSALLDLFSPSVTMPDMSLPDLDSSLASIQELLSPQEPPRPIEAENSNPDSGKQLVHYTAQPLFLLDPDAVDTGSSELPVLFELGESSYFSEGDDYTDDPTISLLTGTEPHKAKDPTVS

## CCOc1ccccc1C(=O)N/N=C/c1ccoc1
[1]
  EC50: 138 µM (active)
[2]
  EC50: 3.33 µM (active)

## O=[N+]([O-])C(/C=C(\Cl)[N+](=O)[O-])=C(N1CCCCC1)N1CCCCC1
H4
  EC50: > 120 µM (not active)
[3]
  EC50: 0.956 µM (active)

## CCCc1nc(NCCO)c(C#N)c2c1CCCC2
[4]
  CC50: 15.7 µM (active)

## CC1=NN(C(N)=S)C(=O)C1N=Nc1ccc(C)c(Br)c1 (configuration not stated)
[5]
  CC50: > 40 µM (active)

## O=C(O)c1ccc(CSc2nc3ccccc3o2)cc1
[6]
  AC50: 51.7 µM (active)
Cytochrome P450 1A2
  AC50: 0.0501 µM (inconclusive)
Cytochrome P450 2C9
  AC50: 39.8 µM (inconclusive)

## CCCOc1cccc(-c2nn(-c3ccccc3)cc2/C=C(\C#N)C(=O)NCCCn2ccnc2)c1
[5]
  CC50: > 40 µM (active)

## COc1ccc(C2=CC(c3c(C)nn(-c4ccccc4)c3Cl)n3nnnc3N2)cc1OC (configuration not stated)
[4]
  CC50: 24.1 µM (active)
[5]
  CC50: > 40 µM (active)

## Cc1nn2c(-c3cccnc3)ccnc2c1-c1ccccc1
[4]
  CC50: 41.2 µM (active)

## CC(=O)N1CCN(C(=S)c2ccc(N(C)C)cc2)CC1
[6]
  AC50: 1.13 µM (active)

## Cn1c(-c2ccc(F)cc2)cnc1NCc1cc2c(cc1[N+](=O)[O-])OCO2
[6]
  AC50: 7.43 µM (active)

## C=CCNC(=O)c1onc(CCl)c1C(=O)OC
[5]
  CC50: > 40 µM (active)

## CCn1cc(C(=O)OCC(=O)Nc2cccc(Cl)c2Cl)c(=O)c2ccc(C)nc21
[1]
  EC50: > 150 µM (inactive)
[2]
  EC50: > 38 µM (not active)

## Nc1ccc(N2CCN(C(=O)c3ccco3)CC2)cc1
[6]
  AC50: 0.719 µM (active)
Cytochrome P450 2C19
  AC50: 8.91 µM (inconclusive)
Cytochrome P450 2C9
  AC50: 10 µM (inconclusive)

## O=C1N=C(N/N=C/c2cccnc2)SC1Cc1ccc(SC(F)F)cc1 (configuration not stated)
[1]
  EC50: > 150 µM (inactive)
[7]
  EC50: 11.9 µM (active)
[8]
  EC50: 3.31 µM (active)
[9]
  EC50: 12.2 µM (active)
[10]
  EC50: 12.3 µM (active)
[2]
  EC50: 1.87 µM (active)
[3]
  EC50: 0.969 µM (active)
[11]
  EC50: 3.44 µM (active)
Streptococcus
  EC50: 8.36 µM (active)
INS1
  AC50: 2.56 µM (active)

## O=C1c2ccccc2C(=O)N1CCCCN(C(=O)c1ccc(Cl)s1)c1ccc(Cl)cc1
[4]
  CC50: 24 µM (active)

## Cc1nn(C)c(C(=O)Nc2cccc(Nc3ccccc3)c2)c1[N+](=O)[O-]
[4]
  CC50: 23.1 µM (active)

## O=C(CSc1nccn1Cc1ccco1)Nc1cccc(F)c1
[12]
  EC50: > 195 µM (not active)

## O=C(NCC(=O)N1CCN(c2ccccc2O)CC1)c1cccs1
[6]
  AC50: 4.14 µM (active)

## CCN(CC)C(=O)[C@H]1CC(CC(=O)NCC23C[C@H]4C[C@@H](C2)C[C@@H](C3)C4)C(=O)N2CCc3c([nH]c4ccccc34)[C@]12C (some centres not stated)
[5]
  CC50: 30.8 µM (active)

## COc1ccc(CCNC(=O)c2ccc(N(C)S(=O)(=O)c3ccc(C)cc3)cc2)cc1
[12]
  EC50: > 195 µM (not active)
